Laboratory results: the COVID Moonshot data (paper PMC11187573), “Identification of SARS-CoV-2 Mpro inhibitors through deep reinforcement learning for de novo drug design and computational chemistry approaches” (RSC Medicinal Chemistry, 2024)

Legend:
[1] = target: SARS-CoV-2 Main Protease (SARS-CoV-2) (UniProt P0DTD1)
[2] = target: SARS-CoV-2 Main Protease (SARS-CoV-2) (UniProt P0DTD1); remark: listed apart in the source

In the case of `C=CC(=O)N(c1ccc(C(F)(F)F)cc1)C(C(=O)NCCc1cccc(F)c1)c1cncc(C)c1` (centres undefined), the IC50 [1] is reported as 7.72 µM, the inhibition ([1]; 50.0 µM) is reported as 91.6% and the relative solubility at 20 uM is reported as 0.91. The relative solubility at 100 uM was 0.73, the inhibition ([2]; 20.0 µM) was 38.8% and the inhibition ([2]; 50.0 µM) was 63%.
`O=C(NCc1cccnn1)Nc1cccc(N2CCC2=O)c1` showed an inhibition ([1]; 20.0 µM) of 0%, an inhibition ([1]; 50.0 µM) of 0% and a relative solubility at 20 uM of 1. For the same molecule, the relative solubility at 100 uM was 1, the inhibition ([2]; 20.0 µM) was 3.61% and the inhibition ([2]; 50.0 µM) was 6.82%.
`O=C1C(=O)N(Cc2ccc(Br)cc2)c2ccccc21` gave an IC50 [1] of 0.747 µM, an inhibition ([1]; 50.0 µM) of 100% and a relative solubility at 20 uM of 1.01. For the same molecule, the relative solubility at 100 uM was 0.9, the inhibition ([2]; 20.0 µM) was -3.27% and the inhibition ([2]; 50.0 µM) was 0.439%.
With `O=C(NCc1ccno1)c1ccccc1OC1CCCCC1` the inhibition ([1]; 20.0 µM) was 0%, the relative solubility at 20 uM was 1 and the relative solubility at 100 uM was 1. For the same molecule, the inhibition ([2]; 20.0 µM) was 4.09% and the inhibition ([2]; 50.0 µM) was 5.82%.
For `COc1ccc(N2CCN(C(=O)c3cc(=O)[nH]c4ccccc34)CC2)cc1`, the IC50 [1] was 95.7 µM, the inhibition ([1]; 50.0 µM) was 51.4% and the relative solubility at 20 uM was 1. The relative solubility at 100 uM was 1, the inhibition ([2]; 20.0 µM) was 61.4% and the inhibition ([2]; 50.0 µM) was 81.7%.
`C=CC(=O)N(c1ccc(C(C)(C)CC)cc1)C(C(=O)Nc1ccc(Cl)cc1)c1cccnc1` (centres undefined) showed an inhibition ([1]; 20.0 µM) of 11.3%, a relative solubility at 20 uM of 0.82 and a relative solubility at 100 uM of 0.68. The inhibition ([2]; 20.0 µM) was 16.5% and the inhibition ([2]; 50.0 µM) was 22.7%.
Work on `O=C(NCCNc1ccncc1)c1cccc(S(=O)(=O)Nc2ccccc2-c2ccccc2)c1` yielded an inhibition ([1]; 50.0 µM) of -3.32%, a relative solubility at 20 uM of 0.95 and a relative solubility at 100 uM of 0.94. The inhibition ([2]; 20.0 µM) was -20.4% and the inhibition ([2]; 50.0 µM) was -32.8%.
`C=CC(=O)N(c1ccc(C(C)(C)C)cc1)C(C(=O)NCC)c1cccnc1` (centres undefined) showed an IC50 [1] of 19.4 µM, an inhibition ([1]; 20.0 µM) of 52.6% and an inhibition ([1]; 50.0 µM) of 100%. The relative solubility at 20 uM was 0.99, the relative solubility at 100 uM was 1 and the inhibition ([2]; 20.0 µM) was 57%. It also gave an inhibition ([2]; 50.0 µM) of 50.2%.
For `CN(C)C/C=C/C(=O)NCc1c[nH]c2ccccc12`, the inhibition ([1]; 20.0 µM) was 0%, the relative solubility at 20 uM was 0.96 and the relative solubility at 100 uM was 0.98. It also gave an inhibition ([2]; 20.0 µM) of 3.86% and an inhibition ([2]; 50.0 µM) of 0.744%.
Work on `C=CC(=O)N(c1ccc(C(C)(C)CC)cc1)C(C(=O)Nc1ccc(Br)cc1)c1cccnc1` (centres undefined) yielded an inhibition ([1]; 20.0 µM) of 0%, a relative solubility at 20 uM of 0.91 and a relative solubility at 100 uM of 0.66. For the same molecule, the inhibition ([2]; 20.0 µM) was 8.32% and the inhibition ([2]; 50.0 µM) was 18.4%.
`CCCNC(=O)C(C)NC(=O)N(C)Cc1csc(C)n1` (centres undefined) showed an inhibition ([1]; 20.0 µM) of 0%, a relative solubility at 20 uM of 1 and a relative solubility at 100 uM of 1. It also gave an inhibition ([2]; 20.0 µM) of 0.814% and an inhibition ([2]; 50.0 µM) of -2.74%.
For `N#Cc1cncc(NC(=O)Nc2cccnc2)c1`, the inhibition ([1]; 50.0 µM) was 17.4%, the relative solubility at 20 uM was 1 and the relative solubility at 100 uM was 1. For the same molecule, the inhibition ([2]; 20.0 µM) was 7.07% and the inhibition ([2]; 50.0 µM) was 17.1%.
`C#CCOc1ccc(N(C(=O)C=C)C(C(=O)NC(C)(C)C)c2cccnc2)cc1` (centres undefined) showed an inhibition ([1]; 20.0 µM) of 0%, a relative solubility at 20 uM of 1 and a relative solubility at 100 uM of 1. The inhibition ([2]; 20.0 µM) was -13.4% and the inhibition ([2]; 50.0 µM) was -14.8%.
`C=CC(=O)N(c1ccc(C(C)C)nc1)C(C(=O)NC(C)(C)C)c1cccnc1` (centres undefined) showed an inhibition ([1]; 20.0 µM) of 0%, a relative solubility at 20 uM of 1 and a relative solubility at 100 uM of 0.99. The inhibition ([2]; 20.0 µM) was 11.7% and the inhibition ([2]; 50.0 µM) was 11.4%.
In the case of `CNC(=O)OC1CCN(C(=O)c2ccncc2)CC1`, the inhibition ([1]; 20.0 µM) is reported as 0.65%, the inhibition ([1]; 50.0 µM) is reported as 2.15% and the relative solubility at 20 uM is reported as 1. The relative solubility at 100 uM was 1 and the inhibition ([2]; 50.0 µM) was -25.3%.
`C=CC(=O)N(c1ccc(N(C)C)c(C)c1)C(C(=O)Nc1ccc(Br)cc1)c1cccnc1` (centres undefined) showed an inhibition ([1]; 20.0 µM) of 0%, a relative solubility at 20 uM of 0.84 and a relative solubility at 100 uM of 0.74. The inhibition ([2]; 20.0 µM) was 3.45% and the inhibition ([2]; 50.0 µM) was 3.43%.
For `Cc1ccc(Oc2cccc(NC(=O)NCc3cnnn3C)c2)c(C)c1`, the inhibition ([1]; 20.0 µM) was 0%, the relative solubility at 20 uM was 0.96 and the relative solubility at 100 uM was 0.75. For the same molecule, the inhibition ([2]; 20.0 µM) was -10.7% and the inhibition ([2]; 50.0 µM) was -12.8%.
With `Cc1cccc(CS(=O)(=O)N2CCC(C(N)=O)CC2)c1` the inhibition ([1]; 50.0 µM) was 0%, the relative solubility at 20 uM was 1.01 and the relative solubility at 100 uM was 1.01. For the same molecule, the inhibition ([2]; 20.0 µM) was -20.4% and the inhibition ([2]; 50.0 µM) was 0.138%.
With `COc1ccccc1N1CCN(C(=O)c2cc(=O)[nH]c3ccccc23)CC1` the inhibition ([1]; 50.0 µM) was 14.8%, the relative solubility at 20 uM was 1 and the relative solubility at 100 uM was 0.99. It also gave an inhibition ([2]; 20.0 µM) of 39% and an inhibition ([2]; 50.0 µM) of 62.8%.
Molecule `O=C(NCc1noc2ccccc12)c1ccccc1OCC1CC1` has an inhibition ([1]; 20.0 µM) of 0%, an inhibition ([1]; 50.0 µM) of 0% and a relative solubility at 20 uM of 1. For the same molecule, the relative solubility at 100 uM was 0.64, the inhibition ([2]; 20.0 µM) was 5.31% and the inhibition ([2]; 50.0 µM) was 11.7%.
With `O=C(Cc1ccc2ccccc2c1)Nc1cc(C(F)(F)F)ccn1` the inhibition ([1]; 20.0 µM) was 11%, the inhibition ([1]; 50.0 µM) was 29.3% and the relative solubility at 20 uM was 0.9. It also gave a relative solubility at 100 uM of 0.38, an inhibition ([2]; 20.0 µM) of -2.55% and an inhibition ([2]; 50.0 µM) of 3.43%.
With `CN(Cc1ccc(OCc2cccs2)cc1)C(=O)Cn1nnc2ccccc21` the inhibition ([1]; 20.0 µM) was 0%, the relative solubility at 20 uM was 0.56 and the relative solubility at 100 uM was -0.05. It also gave an inhibition ([2]; 20.0 µM) of 2.49% and an inhibition ([2]; 50.0 µM) of 10.2%.
`COc1ccc2c(c1)CN(C(=O)CCl)C(c1ccccc1)C2` (centres undefined) gave an IC50 [1] of 1.78 µM, an inhibition ([1]; 50.0 µM) of 100% and a relative solubility at 20 uM of 0.98. It also gave a relative solubility at 100 uM of 0.96, an inhibition ([2]; 20.0 µM) of 97.4% and an inhibition ([2]; 50.0 µM) of 97.5%.
`C=CC(=O)N(c1ccc2cc[nH]c2c1)C(C(=O)NC(C)(C)C)c1cccnc1` (centres undefined) showed an inhibition ([1]; 20.0 µM) of 0%, a relative solubility at 20 uM of 0.84 and a relative solubility at 100 uM of 0.93. The inhibition ([2]; 20.0 µM) was 5.38% and the inhibition ([2]; 50.0 µM) was 10.5%.
With `C=CC(=O)N(c1ccc(SC)cc1)C(C(=O)Nc1ccc(OC)cc1)c1cccnc1` (centres undefined) the inhibition ([1]; 20.0 µM) was 0%, the relative solubility at 20 uM was 0.91 and the relative solubility at 100 uM was 0.77. For the same molecule, the inhibition ([2]; 20.0 µM) was 13.5% and the inhibition ([2]; 50.0 µM) was 27%.
In the case of `O=C(c1cc(=O)[nH]c2ccc(F)cc12)N1CCN(S(=O)(=O)c2ccccc2)CC1`, the inhibition ([1]; 50.0 µM) is reported as 16.2%, the relative solubility at 20 uM is reported as 0.98 and the relative solubility at 100 uM is reported as 0.98. For the same molecule, the inhibition ([2]; 20.0 µM) was 3.84% and the inhibition ([2]; 50.0 µM) was 11.9%.
Work on `C=CC(=O)N(c1ccc(C(C)(C)C)cc1)C(C(=O)Nc1c(C)cccc1CC)c1cccnc1` (centres undefined) yielded an inhibition ([1]; 20.0 µM) of 0%, an inhibition ([1]; 50.0 µM) of 0% and a relative solubility at 20 uM of 0.98. The relative solubility at 100 uM was 0.69 and the inhibition ([2]; 50.0 µM) was -3.74%.
Work on `C=CC(=O)N(c1ccc(C(C)(C)C)cc1)C(C(=O)NCC1CCOC1)c1cccnc1` (centres undefined) yielded an inhibition ([1]; 20.0 µM) of 1.1%, an inhibition ([1]; 50.0 µM) of 29.4% and a relative solubility at 20 uM of 1. The relative solubility at 100 uM was 0.99, the inhibition ([2]; 20.0 µM) was 25.7% and the inhibition ([2]; 50.0 µM) was 41.3%.
Work on `O=C(Cc1ccc2[nH]c(=O)[nH]c2c1)NC1(CNC(=O)c2cnc[nH]2)CC1` yielded an IC50 [1] of 27.3 µM, an inhibition ([1]; 50.0 µM) of 76.6% and a relative solubility at 20 uM of 1. The relative solubility at 100 uM was 1, the inhibition ([2]; 20.0 µM) was 6.85% and the inhibition ([2]; 50.0 µM) was 3.02%.
Work on `O=C(CCl)N1CCN(S(=O)(=O)c2c(F)cccc2F)CC1` yielded an IC50 [1] of 2.62 µM, an inhibition ([1]; 20.0 µM) of 98.6% and an inhibition ([1]; 50.0 µM) of 99.2%. For the same molecule, the relative solubility at 20 uM was 0.96, the relative solubility at 100 uM was 0.88 and the inhibition ([2]; 20.0 µM) was 98.7%. It also gave an inhibition ([2]; 50.0 µM) of 104%.
For `CC(=O)N[C@@H](Cc1ccc(O)cc1)C(=O)NC(CN1CCN(C(=O)CCl)CC1)c1ccccc1` (stereo in doubt), the inhibition ([1]; 50.0 µM) was 31.1%, the relative solubility at 20 uM was 0.99 and the relative solubility at 100 uM was 1. The inhibition ([2]; 20.0 µM) was 21.3% and the inhibition ([2]; 50.0 µM) was 41.2%.
Molecule `O=C1[C@H](Nc2nccn3cnnc23)CCN1c1cccc(Cl)c1` (stereo in doubt) has an inhibition ([1]; 50.0 µM) of 0%, a relative solubility at 20 uM of 1 and a relative solubility at 100 uM of 0.98. The inhibition ([2]; 20.0 µM) was 3.55% and the inhibition ([2]; 50.0 µM) was 5.29%.
Molecule `CC(OCC1CCCCO1)C(=O)N(CCc1ccccc1)Cc1cccnc1` (centres undefined) has an inhibition ([1]; 20.0 µM) of 0%, an inhibition ([1]; 50.0 µM) of 0% and a relative solubility at 20 uM of 1. For the same molecule, the relative solubility at 100 uM was 1 and the inhibition ([2]; 50.0 µM) was -20.6%.
Molecule `O=C(Cc1cccc(Cl)c1)Nn1cnnc1` has an inhibition ([1]; 50.0 µM) of 0%, a relative solubility at 20 uM of 1 and a relative solubility at 100 uM of 1. It also gave an inhibition ([2]; 20.0 µM) of -9.88% and an inhibition ([2]; 50.0 µM) of -21.6%.
With `NS(=O)(=O)c1ccc(N2CCC(CN3CCCCCC3)CC2)cc1` the inhibition ([1]; 20.0 µM) was -2.46%, the inhibition ([1]; 50.0 µM) was 5.22% and the relative solubility at 20 uM was 0.99. The relative solubility at 100 uM was 0.91, the inhibition ([2]; 20.0 µM) was -5.53% and the inhibition ([2]; 50.0 µM) was -0.987%.
